Assay results: patent publication EP1420018A1, “Pyrido[1,2-a]benzimidazole derivatives useful in treating central nervous system disorders” (Ortho-McNeil Pharmaceutical, Inc., priority 1996, dated 1998)
Structures can show the parent of a compound that is named as a salt. Where two headings read alike, the source gives them in different places.

Experiments:
[1] = system: Anxiety in the Adult Male Rat; test: Suppression of Anxiety in the Adult Male Rat (rat conflict test); format: in vivo, rats; details: for minimal effective dose: Rattus norvegicus
Protocol: Assay to Measure the Suppression of Anxiety in the Adult Male Rat
Male rats were deprived of water for 48 hours and were deprived of food for 24 hours prior to testing. After the first 24 hours of water deprivation, they were placed in the conflict chamber for a training period; wherein, they were allowed 200 unpunished licks from a bottle containing tap water. The experiment was run the next day. At the expected time of peak activity, the animals were placed in the chamber and allowed access to tap water. […] Their first lick initiates a 3-min test session. Subsequently, every 20th lick was punished by a 0.2-s shock delivered via the stainless-steel drinking-tube.
The Wilcoxon rank-sum test (Mann-Whitney U-test) was used to test for an increase (p<0.05, 1-tailed) in the median number of shocks in drug-treated groups, compared to a concurrently run vehicle-treated group. The biological assay is considered to be valid if the effects of a known anxiolytic (positive control) are detected, within the same experiment.

[2] = target: benzodiazepine site of the GABA-A receptor; test: Benzodiazepine Receptor Binding Assay (inhibition of 3H-flunitrazepam binding); details: read-out: GABAA Receptor Binding IC50
[3] = system: metrazol-induced convulsions; test: Suppression of Metrazol-Induced Convulsions in Adult Male Mice; format: in vivo; details: Mus musculus, ip
Protocol: Assay to Determine the Suppression of Metrazol-Induced Convulsions in Adult Male Mice
Male CD1 mice, were fasted at least 16 hours, were divided into equal groups and test compounds or vehicle were administered parenterally. Water was not withheld except during the period of observations. […] Metrazol was dissolved in 0.9% sodium chloride solution, and its dose volume was 10 ml/kg. Animals were housed individually for observation of clonic convulsions, tonic convulsions and death for a period of 30 min. […] The biological assay was considered to be valid if the effects of a known anticonvulsant (positive control) were detected, within the same experiment. Activity was reported as percent reduction of clonic convulsions from the vehicle group.

[4] = system: metrazol-induced convulsions; test: as above; format: in vivo; details: for ED50: Mus musculus, po
[5] = po, rat, po, read-out: Rat Conflict (MED, mg/kg) po
[6] = ip, rat, ip, read-out: Rat Conflict (MED, mg/kg) ip
[7] = po, minimum effective dose, increase in shocks tolerated, >10 = active dose not determined, read-out: Rat Conflict (MED, mg/kg) po
[8] = inhibition of 3H-flunitrazepam (ca. 3 nM) binding to membranes, 25°C, over 10,000 = not active
[9] = block of clonic convulsions, male CD1 mice, >30 = active dose not determined

Row | Structure (SMILES) | IC50 [2] | IC50 [2, 8] | minimal effective dose [1, 5] | ED50 ([3]; mouse) | ED50 ([4]; mouse) | minimal effective dose [1, 6] | minimal effective dose [1, 7] | ED50 [3, 9] | ED50 [4, 9] | minimal effective dose ([1]; ip, minimum effective dose, increase in shocks tolerated, >10 = active dose not determined, read-out: Rat Conflict (MED, mg/kg) ip) | Rat Conflict (MED, mg/kg) po ([1]; rat, po) | Mouse Metrazol (ED50, mg/kg) po ([4]; mouse)
1 | O=C1CCN2C(=C1C(=O)Nc1ccccc1F)N(CC1CCOC1)c1cc(F)ccc12 (centres unmarked) [Compound 174] | 2.28 nM |  | 3 mg/kg | < 1 mg/kg | < 3 mg/kg |  |  |  |  |  |  | 
2 | CCN(CC)CCN1C2=C(C(=O)Nc3c(F)cccc3F)C(=O)CCN2c2ccc(F)cc21 [Compound 70] | 267 nM |  |  | > 10 mg/kg | > 30 mg/kg | > 10 mg/kg |  |  |  |  |  | 
3 | CC(C)(C)OC(=O)NCCN1C2=C(C(=O)Nc3ccccc3F)C(=O)CCN2c2ccc(F)cc21 [Compound 58] | 0.54 nM |  | > 10 mg/kg | < 1 mg/kg | < 30 mg/kg | ≤ 10 mg/kg |  |  |  |  |  | 
4 | CCOCN1C2=C(C(=O)Nc3ccc(OC)cc3)C(=O)CCN2c2ccc(F)cc21 [Compound 104] | 1.04 nM |  | 0.1 mg/kg | < 1 mg/kg | < 3 mg/kg |  |  |  |  |  |  | 
5 | CCOCN1C2=C(C(=O)Nc3ccc(C)s3)C(=O)CCN2c2ccccc21 [Compound 101] | 0.95 nM |  | 3 mg/kg | < 1 mg/kg | < 3 mg/kg |  |  |  |  |  |  | 
6 | CCN(CC)CCN1C2=C(C(=O)Nc3ccccc3F)C(=O)CCN2c2ccc(F)cc21 [Compound 71] | 74.5 nM |  | > 10 mg/kg | 2 mg/kg | 10 mg/kg | < 10 mg/kg |  |  |  |  |  | 
7 | COCCNCCN1C2=C(C(=O)Nc3ccccc3F)C(=O)CCN2c2ccc(F)cc21 [Compound 52] | 7.42 nM |  | 10 mg/kg | 1 mg/kg | 1 mg/kg | ~10 mg/kg |  |  |  |  |  | 
8 | CCOCN1C2=C(C(=O)Nc3c(F)cccc3F)C(=O)CCN2c2c1ccc(F)c2F [Compound 127] | 585 nM |  | > 10 mg/kg | ~1 mg/kg | > 30 mg/kg |  |  |  |  |  |  | 
9 | CCN(C)CCN1C2=C(C(=O)Nc3ccccc3F)C(=O)CCN2c2ccc(F)cc21 [Compound 41] |  | 9.8 nM |  |  |  |  | 10 mg/kg | 3 mg/kg | ~10 mg/kg |  |  | 
10 | CCOCN1C2=C(C(=O)Nc3ccc(OC(=O)OC)cc3F)C(=O)CCN2c2ccc(F)cc21 [Compound 100] | 4.35 nM |  | ~1 mg/kg | ≥ 1 mg/kg | 3 to 30 mg/kg |  |  |  |  |  |  | 
11 | CC(C)N(CCN1C2=C(C(=O)Nc3c(F)cccc3F)C(=O)CCN2c2ccc(F)cc21)C(C)C [Compound 68] | 44.6 nM |  |  | > 10 mg/kg | > 30 mg/kg | 10 mg/kg |  |  |  |  |  | 
12 | CCOCN1C2=C(C(=O)Nc3ccccc3F)C(=O)CCN2c2ccc(Cl)cc21 [Compound 157] | 0.48 nM |  | > 10 mg/kg | < 1 mg/kg | ~2 mg/kg |  |  |  |  |  |  | 
13 | COCCN1C2=C(C(=O)NC3CC3)C(=O)CCN2c2ccc(F)cc21 [Compound 118] | 3.68 nM |  | 10 mg/kg | < 1 mg/kg | ~3 mg/kg |  |  |  |  |  |  | 
14 | O=C1CCN2C(=C1C(=O)Nc1cccnc1)N(CCOCc1ccccc1)c1cc(F)ccc12 [Compound 165] | 39.2 nM |  |  | 3 mg/kg | > 30 mg/kg | > 7 mg/kg |  |  |  |  |  | 
15 | COCCOCN1C2=C(C(=O)Nc3ccccc3F)C(=O)CCN2c2ccc(F)cc21 [Compound 159] | 0.8 nM |  | 3 mg/kg | 0.003 mg/kg | 0.1 mg/kg | < 10 mg/kg |  |  |  |  |  | 
16 | CN(C)CCN1C2=C(C(=O)Nc3ccccc3F)C(=O)CCN2c2ccc(Cl)cc21 [Compound 43] |  | 26.9 nM |  |  |  |  | > 10 mg/kg | 1 to 10 mg/kg | < 30 mg/kg | 10 mg/kg |  | 
17 | CNCCN1C2=C(C(=O)Nc3ccccc3F)C(=O)CCN2c2ccc(F)cc21 [Compound 59, 7-Fluoro-1,2-dihydro-5-[2-(methylamino)ethyl]-3-oxo-N-(2-fluorophenyl)pyrido[1,2-a]benzimidazole-4-carboxamide hydrochloride hydrate (4:4:5)] | 16 nM |  | 1 mg/kg | 3 mg/kg | 10 mg/kg | 10 mg/kg |  |  |  |  |  | 
18 | N#CCN1C2=C(C(=O)NC3CCCCC3)C(=O)CCN2c2ccc(F)cc21 [Compound 78] | 30 nM |  | > 10 mg/kg | > 1 mg/kg | > 30 mg/kg |  |  |  |  |  |  | 
19 | O=C1CCN2C(=C1C(=O)Nc1ccccc1F)N(CCNC(=O)c1cccc(C(F)(F)F)c1)c1cc(F)ccc12 [Compound 75] | 9.5 nM |  | > 10 mg/kg | > 1 mg/kg | > 30 mg/kg |  |  |  |  |  |  | 
20 | NCCN1C2=C(C(=O)Nc3ccccc3F)C(=O)CCN2c2ccc(F)cc21 [Compound 57] | 5.13 nM |  | 10 mg/kg | 0.3 mg/kg | 10 mg/kg | ~10 mg/kg |  |  |  |  |  | 
21 | COCCN1C2=C(C(=O)Nc3ccccc3F)C(=O)CCN2c2ccccc21 [Compound 153] | 1.3 nM |  | ≤ 1 mg/kg | < 1 mg/kg | 1 mg/kg |  |  |  |  |  |  | 
22 | CN(C)CCCN1C2=C(C(=O)Nc3ccccc3F)C(=O)CCN2c2ccc(F)cc21 [Compound 67] | 3.29 nM |  | > 10 mg/kg | 3 mg/kg | 30 mg/kg | 10 mg/kg |  |  |  |  |  | 
23 | O=C1CCN2C(=C1C(=O)Nc1ccccc1F)N(CCNS(=O)(=O)c1cccs1)c1cc(F)ccc12 [Compound 47] | 13.7 nM |  |  | 1 mg/kg | 30 mg/kg | > 10 mg/kg |  |  |  |  |  | 
24 | O=C1CCN2C(=C1C(=O)Nc1ccccc1F)N(CCNS(=O)(=O)C(F)(F)F)c1cc(F)ccc12 [Compound 48, 7-Fluoro-1,2-dihydro-5-[2-(trifluoromethylsulfonamido)ethyl]-3-oxo-N-(2-fluorophenyl)pyrido[1,2-a]benzimidazole-4-carboxamide] | 30.2 nM |  | 10 mg/kg | ≤ 1 mg/kg | < 30 mg/kg |  |  |  |  |  |  | 

The next lines start with results.

Row | IC50 [2] | IC50 [2, 8] | Structure (SMILES) | minimal effective dose [1, 5] | ED50 ([3]; mouse) | ED50 ([4]; mouse) | minimal effective dose [1, 6] | minimal effective dose [1, 7] | ED50 [3, 9] | ED50 [4, 9] | minimal effective dose ([1]; ip, minimum effective dose, increase in shocks tolerated, >10 = active dose not determined, read-out: Rat Conflict (MED, mg/kg) ip) | Rat Conflict (MED, mg/kg) po ([1]; rat, po) | Mouse Metrazol (ED50, mg/kg) po ([4]; mouse)
25 | 6.78 nM |  | CCOCCN1C2=C(C(=O)Nc3nccs3)C(=O)CCN2c2ccc(F)cc21 [Compound 141] | > 3 mg/kg | < 1 mg/kg | ~6 mg/kg |  |  |  |  |  |  | 
26 | 1.34 nM |  | COCCN1C2=C(C(=O)Nc3sccc3Cl)C(=O)CCN2c2ccc(F)cc21 [Compound 138] | > 10 mg/kg | < 1 mg/kg | 30 mg/kg |  |  |  |  |  |  | 
27 | 1.35 nM |  | COCCN1C2=C(C(=O)Nc3ccc(C)s3)C(=O)CCN2c2ccc(F)cc21 [Compound 143] | < 10 mg/kg | < 1 mg/kg | 0.7 mg/kg |  |  |  |  |  |  | 
28 | 2.4 nM |  | CCOCCN1C2=C(C(=O)Nc3ccc(F)cc3F)C(=O)CCN2c2ccc(F)cc21 [Compound 137] | 1 mg/kg | < 1 mg/kg | 0.15 mg/kg | 1 mg/kg |  |  |  |  |  | 
29 | 0.73 nM |  | CCOCCN1C2=C(C(=O)Nc3cccs3)C(=O)CCN2c2ccc(F)cc21 [Compound 126] | 0.1 mg/kg | < 1 mg/kg | ~0.6 mg/kg |  |  |  |  |  |  | 
30 | 0.28 nM |  | CCOCCCN1C2=C(C(=O)Nc3ccccc3F)C(=O)CCN2c2ccc(F)cc21 [Compound 152] | 1 mg/kg | < 1 mg/kg | ~0.3 mg/kg |  |  |  |  |  |  | 
31 | 5.55 nM |  | COCCN1C2=C(C(=O)Nc3ccc(F)cc3F)C(=O)CCN2c2ccc(F)cc21 [Compound 136] | 0.3 mg/kg | < 1 mg/kg | 0.3 mg/kg |  |  |  |  |  |  | 
32 | 5.26 nM |  | COCCN1C2=C(C(=O)Nc3ccc(Br)s3)C(=O)CCN2c2ccc(F)cc21 [Compound 144] | > 10 mg/kg | < 1 mg/kg | ~10 mg/kg |  |  |  |  |  |  | 
33 | 0.65 nM |  | CCOCN1C2=C(C(=O)Nc3c(F)cccc3F)C(=O)CCN2c2ccc(F)cc21 [Compound 173] | > 10 mg/kg | 1 mg/kg | 3 mg/kg | > 10 mg/kg |  |  |  |  |  | 
34 | 84 nM |  | CCOCCN1C2=C(C(=O)Nc3ccc(S(C)(=O)=O)s3)C(=O)CCN2c2ccc(F)cc21 [Compound 121] | > 10 mg/kg | > 1 mg/kg | > 30 mg/kg |  |  |  |  |  |  | 
35 | 0.98 nM |  | CCOCN1C2=C(C(=O)Nc3ccsc3)C(=O)CCN2c2ccc(F)cc21 [Compound 124] | ~0.3 mg/kg | < 1 mg/kg | ~0.2 mg/kg |  |  |  |  |  |  | 
36 | 3.97 nM |  | COCCN1C2=C(C(=O)Nc3nccs3)C(=O)CCN2c2ccc(F)cc21 [Compound 140] |  | < 1 mg/kg |  |  |  |  |  |  | >10 mg/kg | 0.3 mg/kg
37 | 2.05 nM |  | COCCN1C2=C(C(=O)Nc3ccc(Cl)s3)C(=O)CCN2c2ccc(F)cc21 [Compound 145] | > 10 mg/kg | < 1 mg/kg | ~30 mg/kg |  |  |  |  |  |  | 
